Drawing on PubChem BioAssay AID743395 (Broad Institute, 2014), this text covers AC35 for 93 molecules.

The assay has as its system HepG2 viability, CellTiter-Glo ATP luminescence, 72 h. The assay is described as follows: viability loss in human hepatoma cells – cell-based, CellTiter-Glo luminescence, cherry-pick, set 2, cytotoxicity control, dose response (AID 743395). In general terms: Cellular ATP, detected with luciferase, serves as a proxy for viable cell number.

For `O=C(OCc1ccc(Br)cc1)c1cc([N+](=O)[O-])ccc1N1CCOCC1`, the AC35 is 10.8 µM.

As for `COc1ccc(-c2ccnc(-c3ccc(O)cc3)n2)cc1`, the AC35 was 10.1 µM.

Consider `O=C1C=C(NCCc2cc(Br)c(O)c(Br)c2)C(=O)c2ncccc21`, for which the AC35 was 6.95 µM.

Turning to `COc1cc2c(c(Br)c1N)-c1cc(Br)c(N)cc1C2=O`, the AC35 was 0.431 µM.

For the molecule `CCN(CC)c1ccc(/C=N/NC(=O)c2cnccn2)cc1`, the AC35 was 6.68 µM.

As to `O=C(C[C@@H]1CC[C@H]2[C@@H](COC[C@H](O)CN2Cc2ccc3c(c2)OCO3)O1)Nc1ccc(-c2ccccc2)cc1`, the AC35 is 16.8 µM.

For `CCCC(=O)Nc1ccc2c(c1)nc(CN1CCN(C(=O)OCC)CC1)n2CC`, the AC35 was 18.9 µM.

For `Cc1ccc(-c2ccc([C@H]3[C@@H](CO)N4CCCCN(C(=O)Nc5cccc(F)c5)C[C@H]34)cc2)cc1`, the AC35 was 11 µM.

With `CN1C(=O)NC(=O)C2(CCCC2)C1=O`, the AC35 is 9.42 µM.

`CN(C)c1ccc(-[n+]2c(-c3ccccc3)cc(-c3ccccc3)cc2-c2ccccc2)cc1`: the AC35 was 3.01 µM.

With `C[C@H]1CN([C@@H](C)CO)C(=O)c2cccc(NC(=O)Nc3ccc(C(F)(F)F)cc3)c2O[C@H]1CN(C)C(=O)NC1CCCCC1`, the AC35 was 11.2 µM.

On to `COc1cc(C(=O)Nc2ccc3c(c2)ncn3C)cc(OC)c1OC`, for which the AC35 was 14.5 µM.

Consider `Cc1ccccc1-c1nc(CS(=O)(=O)CC(=O)NCc2ccccc2)c(C)o1`, for which the AC35 was 18.4 µM.

Regarding `Cc1nn2cc(-c3cccc(Cl)c3)cnc2c1Br`, the AC35 is 11.1 µM.

As to `O=C(C1CCCCC1)N1CC(=O)N2[C@@H](CO)[C@H](c3ccc(C#Cc4cccc(F)c4)cc3)[C@@H]2C1`, the AC35 was 16.4 µM.

For `COC(=O)/C=C/c1ccccc1S(=O)(=O)N(Cc1ccccc1)Cc1ccco1`, the AC35 was 15.4 µM.

Turning to `COc1cccc(N=Nc2ccc3cccnc3c2O)c1`, the AC35 is 4.42 µM.

Turning to `Cc1cccc(NC(=S)N/N=C/c2cccc(O)c2)c1C`, the AC35 was 12.2 µM.

As for `COc1ccc(C2=Nn3c(nnc3-c3ccccc3OC)SC2)cc1OC1CCOC1` (stereo not drawn), the AC35 was 7.54 µM.

Consider `COc1ccc(C)cc1Nc1c2c(nc3ccccc13)CCC2`, for which the AC35 is 8.79 µM.

Regarding `Cc1ccc(C(=O)NC(=S)NNC(=O)c2ccccc2O)cc1`, the AC35 was 17.2 µM.

In the case of `CC(=O)Nc1ccc(S(=O)(=O)NC2=C(N3CCN(Cc4ccccc4)CC3)C(=O)c3ccccc3C2=O)cc1`, the AC35 was 17.1 µM.

Take `CN(C)CCCNc1c2ccccc2nc2ccccc12`: the AC35 is 0.794 µM.

Consider `CCOC(=O)c1c(C)[nH]c(C(=O)N/N=C\c2ccccc2O)c1C`, for which the AC35 is 2.34 µM.

Take `CC(=O)c1cccc(-c2ccnc3c2CC(C(=O)NCc2ccco2)O3)c1` (stereo not drawn): the AC35 is 6.09 µM.

Consider `COc1cc(C(=O)Nc2ccccc2C(=O)Nc2ccccn2)cc(OC)c1OC`, for which the AC35 is 4.9 µM.

Take `COc1ccc(C2=Nn3c(nnc3-c3ccccc3F)SC2)cc1OC1CCCC1`: the AC35 is 11.1 µM.

As to `CC(C)(C)N(Cc1ccccc1)C(=O)c1cc2ccccc2o1`, the AC35 is 16.1 µM.

Turning to `CN(CC1CCCO1)S(=O)(=O)c1ccc(C(=O)Nc2nnc(-c3ccccc3)o2)cc1` (stereo not drawn), the AC35 was 9.86 µM.

For `COc1ccc(/C(C)=N/NC(=O)c2cccc(S(=O)(=O)N3CCCC3)c2)c(O)c1`, the AC35 is 0.944 µM.

In the case of `COc1ccccc1C(=O)NC(=S)/C=C1/N(C)c2ccccc2C1(C)C`, the AC35 was 16 µM.

Regarding `COc1ccc(Nc2nc(-c3sc(C)nc3C)cs2)c(OC)c1`, the AC35 is 10 µM.

For the molecule `CNc1c2cccc(C)c2nc2c(C(=O)NCCN(C)C)cccc12`, the AC35 was 0.428 µM.

Consider `Cc1cccc(Nc2nc(N)nc(-c3oc4ccccc4c3C)n2)c1`, for which the AC35 was 15.4 µM.

As to `c1ccc(CCNc2nc(-c3ccccn3)nc3ccccc23)cc1`, the AC35 is 4.46 µM.

With `O=[N+]([O-])c1ccc(N2CCOCC2)c2c1no[n+]2[O-]`, the AC35 was 8.72 µM.

For `COc1cc(OC)cc(C(=O)N[C@H](C(=O)Nc2nc3ccccc3[nH]2)C(C)C)c1`, the AC35 was 10.2 µM.

Turning to `Cc1cc2c(cc1S(=O)(=O)Nc1ccc(F)cc1)n(C)c(=O)c(=O)n2C`, the AC35 is 18.2 µM.

Regarding `COc1ccc(C2C3=C(COC3=O)Oc3cc4c(cc32)OCO4)cc1OC` (stereo not drawn), the AC35 was 10.9 µM.

Consider `Cc1ccc2[nH]c(C(=O)N/N=C/c3ccccc3O)c(C)c2c1`, for which the AC35 was 2.41 µM.

For the molecule `O=C(NCc1ccccc1)C1Cc2c(-c3cccc(F)c3)ccnc2O1` (stereo not drawn), the AC35 is 22.1 µM.

For the molecule `COc1ccc2c3c(n(C)c2c1)[C@H](CO)N(C(=O)C1CC1)CC31CCN(Cc2cccc(F)c2)CC1`, the AC35 was 4.68 µM.

In the case of `CCCC(=O)Nc1nc2ccc(NC(=O)c3c(F)c(F)c(OC)c(F)c3F)cc2s1`, the AC35 was 7.54 µM.

With `CC12CCC(CC1O)C2C(=O)O` (stereo not drawn), the AC35 is 17.9 µM.

Turning to `COc1cccc(-c2cnc3c(NC(C)=O)cc(-c4cc(F)ccc4OC)cn23)c1`, the AC35 was 12.5 µM.

With `Cc1ccc2cc(CN(CC3CCCO3)C(=S)Nc3ccccc3)c(=O)[nH]c2c1C` (stereo not drawn), the AC35 was 14.7 µM.

Take `COc1ccc(O)c(/C=N/NC(=O)c2ccc(N3CCCC3=O)cc2)c1`: the AC35 is 2.93 µM.

Turning to `O=C(Cc1ccccc1)N1CC(=O)N2[C@H](CO)[C@@H](c3ccc(-c4ccccc4)cc3)[C@@H]2C1`, the AC35 is 18.7 µM.

In the case of `O=C(N/N=C/c1c(O)ccc2ccccc12)c1ccc(Br)o1`, the AC35 is 1.18 µM.

In the case of `Cc1ccc(S(=O)(=O)Nc2ccc3c(c2)CC(=O)N([C@@H](C)CO)C[C@@H](C)[C@@H](CN(C)Cc2ccc(Cl)c(Cl)c2)O3)cc1`, the AC35 was 10.3 µM.

`Cc1c(C2Nc3ccccc3C2C)[nH]c2ccccc12` (stereo not drawn): the AC35 was 6.86 µM.

For the molecule `COc1cc(Nc2c3c(nc4ccccc24)CCC3)cc(OC)c1OC`, the AC35 was 7.54 µM.

For the molecule `COc1ccc(Nc2nc3cc(-c4sccc4C)sc3c(=O)n2C)cc1OC`, the AC35 was 5.88 µM.

As for `CC(=O)NC(c1ccc(Cl)cc1Cl)c1ccc2cccnc2c1O` (stereo not drawn), the AC35 is 0.921 µM.

Turning to `Cc1ccc(C)c(CSc2nc3[nH]ncc3c(=O)[nH]2)c1`, the AC35 was 5.46 µM.

For `COc1ccc(C(=O)NCCN(C)C)c2nc3ccccc3cc12`, the AC35 is 2.81 µM.

For `COc1ccc(CC(=O)NCc2ccc(-n3cccc3)cc2)cc1OC`, the AC35 is 9.29 µM.

As to `O=c1cc(-c2ccc(O)c(O)c2)oc2cc(O)cc(O)c12`, the AC35 is 19 µM.

With `CC1(C)CCN2CCC(C)(C)c3c(O)ccc1c32`, the AC35 is 6.54 µM.

On to `O=C(Nc1cccc(F)c1)N1CCCCN2[C@@H](CO)[C@H](c3ccc(C#CC4CC4)cc3)[C@@H]2C1`, for which the AC35 is 10.1 µM.

For the molecule `Cc1ccc(-c2csc(Nc3ccccn3)n2)cc1`, the AC35 was 13 µM.

As for `CCc1ccc(N2CC(C(=O)Nc3ccccc3N3CCCC3)CC2=O)cc1` (stereo not drawn), the AC35 is 10.8 µM.

Take `C/C(=N\Nc1ncnc2sc(C)c(C)c12)c1ccccn1`: the AC35 was 0.572 µM.

Consider `O=C(Nc1nc(-c2ccccn2)cs1)c1ccc(F)c(S(=O)(=O)N2CCOCC2)c1`, for which the AC35 is 11.3 µM.

`COc1ccc(S(=O)(=O)N(C(=O)C(C)C)c2ccc3oc(=O)sc3c2)cc1`: the AC35 was 17.1 µM.

As to `Cc1ccnc(N2C(=O)c3cccc4c([N+](=O)[O-])ccc(c34)C2=O)c1`, the AC35 is 14.9 µM.

Take `COc1ccc([C@H]2CC(=O)C=C(c3c(OC)cccc3OC)C2)cc1`: the AC35 is 3.37 µM.

In the case of `Cc1cccc(N2CCN(Cc3cn(C)nc3-c3ccccc3F)CC2)n1`, the AC35 is 3.97 µM.

As to `COC(=O)c1cc(C(=O)N2CCN(c3cccc(Cl)c3)CC2)cc([N+](=O)[O-])c1`, the AC35 is 14.1 µM.

Consider `Cc1ccc(S(=O)(=O)N2CCCCC2CCNC(=O)C(=O)NCc2ccccc2)cc1` (stereo not drawn), for which the AC35 is 12.5 µM.

`CCC1=Nc2cc(C(=O)NCC3CCCO3)ccc2Sc2ccc(Cl)cc21` (stereo not drawn): the AC35 was 10.6 µM.

As for `Nc1ccc2ccc3cccc[n+]3c2c1`, the AC35 was 21.5 µM.

For the molecule `Oc1ccc2ccccc2c1/C=C/c1ccc2c(Br)cc(Br)c(O)c2n1`, the AC35 is 9.42 µM.

On to `Clc1ccc2c(c1)-c1ccccc1C1=NCCN12`, for which the AC35 was 3.06 µM.

Regarding `CN1c2ccc(-c3ccc(F)cc3)cc2[C@H]2[C@H](CCN2S(=O)(=O)c2cccc(F)c2)[C@H]1CO`, the AC35 was 17.2 µM.

Consider `COc1ccccc1NC(=S)N(Cc1ccco1)Cc1cc2cc(C)cc(C)c2[nH]c1=O`, for which the AC35 is 11.6 µM.

As for `COc1cc2c(C#CCCO)c(-c3ccsc3)oc(=O)c2cc1OC`, the AC35 is 21 µM.

As to `O=C(N/N=C/c1c(O)ccc2ccccc12)c1ccc(CO)nc1`, the AC35 was 5.89 µM.

Regarding `O=C(NCc1ccccc1)C1Cc2c(-c3ccc(Cl)cc3)ccnc2O1` (stereo not drawn), the AC35 was 9.8 µM.

On to `O=C1C=CC(O)(c2cc(=O)c3c(O)cc(O)cc3o2)C=C1`, for which the AC35 is 8.15 µM.

In the case of `Cc1ccc(N(C)S(=O)(=O)c2ccc(-c3cnc(C4CC4)o3)cc2)cc1`, the AC35 was 8.88 µM.

On to `COc1ccc(S(=O)(=O)Nc2cc3c(cc2C(C)=O)OCO3)cc1`, for which the AC35 is 12.9 µM.

On to `COc1cccc2c1C(=O)c1c(O)c3c(c(O)c1C2=O)CC(O)(C(=O)CO)CC3OC1CC(N(C)C)C(O)C(C)O1` (stereo not drawn), for which the AC35 was 0.0659 µM.

For the molecule `Cc1nc(N)[nH]c(=O)c1CCCNS(=O)(=O)c1ccc([N+](=O)[O-])cc1`, the AC35 was 17.1 µM.

With `Cc1cc(C(=O)N/N=C/c2ccc(N(C)C)cc2)c2ccccc2n1`, the AC35 was 8.84 µM.

For `Cc1ccccc1S(=O)(=O)N1C[C@@H]2N[C@H](C1)C2c1ccc(-c2cccc(C#N)c2)cc1` (stereo partly drawn), the AC35 is 9.94 µM.

Consider `O=C1OCC2=C1C(c1ccc3c(c1)OCO3)c1cc3c(cc1O2)OCO3` (stereo not drawn), for which the AC35 is 3.26 µM.

Turning to `COc1ccc2c3c([nH]c2c1)[C@@H](CO)N(C(=O)C1CCOCC1)CC31CCN(Cc2cccc(F)c2)CC1`, the AC35 is 1.04 µM.

In the case of `COc1ccc(-c2ccc3c(c2)[C@H]2[C@H](CCN2S(=O)(=O)c2ccc(OC)cc2)[C@@H](CO)N3C)cc1`, the AC35 is 18.2 µM.

Turning to `O=Nc1ccc(O)c2ncccc12`, the AC35 is 5.57 µM.

Turning to `COc1cccc(S(=O)(=O)N(C)C[C@@H]2Oc3cc(C4=CCCC4)ccc3S(=O)(=O)N([C@H](C)CO)C[C@H]2C)c1`, the AC35 was 20.3 µM.

As for `COc1cccc2c1C(=O)c1c(O)c3c(c(O)c1C2=O)C[C@](O)(C(C)=O)C[C@H]3O[C@@H]1C[C@@H](N)[C@@H](O)[C@@H](C)O1`, the AC35 was 0.0738 µM.

Take `CN(C)CCCN(C(=O)c1ccco1)c1nc(-c2ccc(Cl)cc2)cs1`: the AC35 was 22.2 µM.
